According to US9149455B2, “Methods of treating melanoma” (Abraxis BioScience, LLC, priority 2012, dated 2015):

Assays:
metastatic melanoma = details: advanced melanoma; Finn L et al., BMC Medicine 2012; cited from earlier work
[1] = Phase 3 study of Nab-paclitaxel versus dacarbazine, treatment-related adverse events; assay type: in vivo, human
[2] = tested on: stage IV cutaneous metastatic malignant melanoma; assay: Phase 3 study of Nab-paclitaxel versus dacarbazine in chemotherapy-naive patients, efficacy; assay type: in vivo, human
Source text: Chemotherapy-naïve patients with stage IV cutaneous metastatic malignant melanoma were enrolled. The patients had Eastern Cooperative Oncology Group (ECOG) PS 0-1, measurable disease, and lactate dehydrogenase (LDH) levels ≦2.0× Upper Limit of Normal (ULN), and had no current brain metastases.
The primary efficacy endpoint was progression-free survival (“PFS”) based on a blinded radiology assessment (according to Response Evaluation Criteria in Solid Tumors (“RECIST”) v1.0). The secondary efficacy endpoint was overall survival (“OS”). Other endpoints included objective response rate (“ORR”), disease control rate (“DCR”), and safety/tolerability.

[3] = Grade ≧3 treatment-related adverse events

Compound: Ipilmumab: anti-CTLA-4 antibody, FDA approved 2011 for advanced melanoma
- improvement of median survival time (metastatic melanoma): two

Compound: CN(C)/N=N/c1[nH]cnc1C(N)=O [Dacarbazine, dacarbazine]
- Alopecia ([1]; Grade ≧3 TRAE): 0%
- Anemia ([1]; Grade ≧3 TRAE): 5%
- Fatigue ([1]; Grade ≧3 TRAE): 2%
- Leukopenia ([1]; Grade ≧3 TRAE): 7%
- Lymphocytopenia ([1]; Grade ≧3 TRAE): 11%
- Neutropenia ([1]; Grade ≧3 TRAE): 10%
- Peripheral Neuropathy ([1]; Grade ≧3 TRAE): 0%
- Thrombocytopenia ([1]; Grade ≧3 TRAE): 6%
- Patients with at least 1 TRAE [1, 3]: 28%
- Patients with at least 1 serious TRAE [1, 3]: 7%
- Median OS (interim) ([2]; BRAF V600E Mutation subgroup): 11.2 months
- Median PFS ([2]; BRAF V600E Mutation subgroup): 3.5 months
- Median OS (interim) ([2]; BRAF Wild Type subgroup): 11.1 months
- Median PFS ([2]; BRAF Wild Type subgroup): 2.5 months
- Median OS (interim) ([2]; BRAF status Unknown subgroup): 9.9 months
- Median PFS ([2]; BRAF status Unknown subgroup): 2.2 months
- progression free survival (PFS) by independent radiology review ([2]; all patients, Nab-paclitaxel 150 mg/m^2 iv days 1, 8, 15 of 28-day cycle vs dacarbazine 1000 mg/m^2 iv day 1 of 21-day cycle, RECIST v1.0, P=0.044): 2.5 months
- Median OS, planned interim analysis ([2]; all patients, at time of PFS analysis, 64% of patients had an event): 10.7 months
- Best Response: Not Evaluable ([2]; blinded radiology assessment): 25%
- Best Response: PD ([2]; blinded radiology assessment): 48%
- Best Response: SD ([2]; blinded radiology assessment): 16%
- DCR ([2]; blinded radiology assessment): 27%
- ORR ([2]; blinded radiology assessment): 11%
- PR (listed under DCR) ([2]; blinded radiology assessment): 11%
- Best Response: PR ([2]; blinded radiology assessment, confirmed): 11%

Compound: CCCS(=O)(=O)Nc1ccc(F)c(C(=O)c2c[nH]c3ncc(-c4ccc(Cl)cc4)cc23)c1F [vemurafenib]
- toxicity (metastatic melanoma): low toxicity
